# ChEMBL document CHEMBL1909294, “Translating clinical findings into knowledge in drug safety evaluation--drug induced liver injury prediction system (DILIps)” (PLoS Comput Biol, 2011)
# Legend:
# Hepatotoxicity [1] = system: Hepatotoxicity;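 for HepSE bilirubinemia: bilirubinemia hepatic side effect score drawn from the DILIps training data, a prediction system for drug-induced liver injury; call rule not given here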;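 for HepSE cholelithiasis: hepatic side effect score for cholelithiasis, drawn from the DILIps training data for predicting drug-induced liver injury; call rule not given here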;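 for HepSE cirrhosis: cirrhosis hepatic side effect score taken from the DILIps (drug-induced liver injury prediction) training set; call rule not given here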; for HepSE hepatic failure: call rule not given here;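 for HepSE hepatomegaly: hepatic side effect score for hepatomegaly, taken from the training set of the DILIps drug-induced liver injury prediction system; call rule not given here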; for HepSE liver disease: call rule not given here;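 for HepSE liver function tests abnormal: hepatic side effect score taken from the DILIps (drug-induced liver injury prediction system) training data, here covering abnormal liver function test findings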
# Hepatotoxicity [2] = system: Hepatotoxicity; remark: listed apart in the source;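 for HepSE bilirubinemia: bilirubinemia hepatic side effect score drawn from the DILIps training data, a prediction system for drug-induced liver injury; call rule not given here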;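 for HepSE cholelithiasis: hepatic side effect score for cholelithiasis, drawn from the DILIps training data for predicting drug-induced liver injury; call rule not given here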;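 for HepSE cirrhosis: cirrhosis hepatic side effect score taken from the DILIps (drug-induced liver injury prediction) training set; call rule not given here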; for HepSE hepatic failure: call rule not given here;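 for HepSE hepatomegaly: hepatic side effect score for hepatomegaly, taken from the training set of the DILIps drug-induced liver injury prediction system; call rule not given here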; for HepSE liver disease: call rule not given here;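 for HepSE liver function tests abnormal: hepatic side effect score taken from the DILIps (drug-induced liver injury prediction system) training data, here covering abnormal liver function test findings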
# Hepatotoxicity [3] = system: Hepatotoxicity; remark: listed apart in the source;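 for HepSE bilirubinemia: bilirubinemia hepatic side effect score drawn from the DILIps training data, a prediction system for drug-induced liver injury; call rule not given here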;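 for HepSE cholelithiasis: hepatic side effect score for cholelithiasis, drawn from the DILIps training data for predicting drug-induced liver injury; call rule not given here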;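 for HepSE cirrhosis: cirrhosis hepatic side effect score taken from the DILIps (drug-induced liver injury prediction) training set; call rule not given here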; for HepSE hepatic failure: call rule not given here;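 for HepSE hepatomegaly: hepatic side effect score for hepatomegaly, taken from the training set of the DILIps drug-induced liver injury prediction system; call rule not given here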; for HepSE liver disease: call rule not given here;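 for HepSE liver function tests abnormal: hepatic side effect score taken from the DILIps (drug-induced liver injury prediction system) training data, here covering abnormal liver function test findings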
# Hepatotoxicity [4] = system: Hepatotoxicity; remark: listed apart in the source;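 for HepSE bilirubinemia: bilirubinemia hepatic side effect score drawn from the DILIps training data, a prediction system for drug-induced liver injury; call rule not given here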;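 for HepSE cholelithiasis: hepatic side effect score for cholelithiasis, drawn from the DILIps training data for predicting drug-induced liver injury; call rule not given here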;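 for HepSE cirrhosis: cirrhosis hepatic side effect score taken from the DILIps (drug-induced liver injury prediction) training set; call rule not given here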; for HepSE hepatic failure: call rule not given here; for HepSE liver disease: call rule not given here;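 for HepSE liver function tests abnormal: hepatic side effect score taken from the DILIps (drug-induced liver injury prediction system) training data, here covering abnormal liver function test findings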
# Hepatotoxicity [5] = system: Hepatotoxicity; remark: listed apart in the source; for HepSE hepatic failure: call rule not given here; for HepSE liver disease: call rule not given here
# Hepatotoxicity [6] = system: Hepatotoxicity; remark: listed apart in the source; for HepSE hepatic failure: call rule not given here; for HepSE liver disease: call rule not given here
# Hepatotoxicity [7] = system: Hepatotoxicity; remark: listed apart in the source
# Hepatotoxicity [8] = system: Hepatotoxicity; remark: listed apart in the source
# Hepatotoxicity [9] = system: Hepatotoxicity; remark: listed apart in the source
# Hepatotoxicity [10] = system: Hepatotoxicity; remark: listed apart in the source
# Hepatotoxicity [11] = system: Hepatotoxicity; remark: listed apart in the source
# Hepatotoxicity [12] = system: Hepatotoxicity; remark: listed apart in the source
# Hepatotoxicity [13] = system: Hepatotoxicity; remark: listed apart in the source
# Hepatotoxicity [14] = system: Hepatotoxicity; remark: listed apart in the source
Compound,HepSE_liver function tests abnormal (Hepatotoxicity [1]),HepSE_liver disease (Hepatotoxicity [2]),HepSE_bilirubinemia (Hepatotoxicity [3]),HepSE_cirrhosis (Hepatotoxicity [4]),HepSE_hepatic failure (Hepatotoxicity [5]),HepSE_cholelithiasis (Hepatotoxicity [6]),HepSE_hepatomegaly (Hepatotoxicity [7]),HepSE_liver fatty (Hepatotoxicity [8]),HepSE_hepatitis (Hepatotoxicity [9]),HepSE_cholecystitis (Hepatotoxicity [10]),HepSE_hepatic necrosis (Hepatotoxicity [11]),HepSE_jaundice (Hepatotoxicity [12]),HepSE_Combined Scores (Hepatotoxicity [13]),HepSE_elevated liver function tests (Hepatotoxicity [14]),also measured
C[C@H](CS)C(=O)N1CCC[C@H]1C(=O)O [CAPTOPRIL],0,0,0,0,0,0,0,0,1,0,0,1,2,0,–
CC(=O)O.NCc1ccc(S(N)(=O)=O)cc1 [MAFENIDE ACETATE],0,0,0,0,0,0,0,0,0,0,0,0,0,0,–
COc1cc(NC(C)CCCN)c2ncccc2c1 (stereo not drawn) [PRIMAQUINE],0,0,0,0,0,0,0,0,0,0,0,0,0,0,–
GOLD SODIUM THIOMALATE,0,0,0,0,1,0,0,0,0,0,0,1,2,0,–
COc1cc(CC2c3c(cc(OC)c(OC)c3OC)CC[N+]2(C)CCCOC(=O)CCC(=O)OCCC[N+]2(C)CCc3cc(OC)c(OC)c(OC)c3C2Cc2cc(OC)c(OC)c(OC)c2)cc(OC)c1OC (stereo not drawn) [DOXACURIUM],0,0,0,0,0,0,0,0,0,0,0,0,0,0,–
CC[C@H](C)C(=O)O[C@H]1C[C@H](O)C=C2C=C[C@H](C)[C@H](CC[C@@H](O)C[C@@H](O)CC(=O)O)[C@H]21 [PRAVASTATIN],0,0,0,1,0,0,0,0,1,0,1,1,4,0,–
C#CCN[C@@H]1CCc2ccccc21 [RASAGILINE],–,–,–,–,–,–,–,–,–,–,–,–,–,–,HepSE_liver function tests abnormal (Hepatotoxicity [1]; Liver): 1; HepSE_liver disease (Hepatotoxicity [2]; Liver): 0; HepSE_bilirubinemia (Hepatotoxicity [3]; Liver): 0; HepSE_cirrhosis (Hepatotoxicity [4]; Liver): 0; HepSE_hepatic failure (Hepatotoxicity [5]; Liver): 0; HepSE_cholelithiasis (Hepatotoxicity [6]; Liver): 0; HepSE_hepatomegaly (Hepatotoxicity [7]; Liver): 0; HepSE_liver fatty (Hepatotoxicity [8]; Liver): 0; HepSE_hepatitis (Hepatotoxicity [9]; Liver): 0; HepSE_cholecystitis (Hepatotoxicity [10]; Liver): 0; HepSE_hepatic necrosis (Hepatotoxicity [11]; Liver): 0; HepSE_jaundice (Hepatotoxicity [12]; Liver): 1; HepSE_Combined Scores (Hepatotoxicity [13]; Liver): 2; HepSE_elevated liver function tests (Hepatotoxicity [14]; Liver): 0
CCCCCc1cc(O)c2c(c1)OC(C)(C)[C@@H]1CCC(C)=C[C@@H]21 [DRONABINOL],0,0,0,0,0,0,0,0,0,0,0,0,0,0,–
CCCC(=O)Nc1ccc(OCC(O)CNC(C)C)c(C(C)=O)c1 (stereo not drawn) [ACEBUTOLOL],0,0,0,0,0,0,0,0,0,0,0,0,0,0,–
CC[C@]1(O)C[C@H]2CN(CCc3c([nH]c4ccccc34)[C@@](C(=O)OC)(c3cc4c(cc3OC)N(C=O)[C@H]3[C@@](O)(C(=O)OC)[C@H](OC(C)=O)[C@]5(CC)C=CCN6CC[C@]43[C@@H]65)C2)C1 [VINCRISTINE],0,0,0,0,0,0,0,0,0,0,0,0,0,0,–
Cc1ccc(-c2cc(C(F)(F)F)nn2-c2ccc(S(N)(=O)=O)cc2)cc1 [CELECOXIB],–,–,–,–,–,–,–,–,–,–,–,–,–,–,HepSE_liver function tests abnormal (Hepatotoxicity [1]; Liver): 1; HepSE_liver disease (Hepatotoxicity [2]; Liver): 0; HepSE_bilirubinemia (Hepatotoxicity [3]; Liver): 0; HepSE_cirrhosis (Hepatotoxicity [4]; Liver): 0; HepSE_hepatic failure (Hepatotoxicity [5]; Liver): 1; HepSE_cholelithiasis (Hepatotoxicity [6]; Liver): 1; HepSE_hepatomegaly (Hepatotoxicity [7]; Liver): 0; HepSE_liver fatty (Hepatotoxicity [8]; Liver): 0; HepSE_hepatitis (Hepatotoxicity [9]; Liver): 1; HepSE_cholecystitis (Hepatotoxicity [10]; Liver): 0; HepSE_hepatic necrosis (Hepatotoxicity [11]; Liver): 0; HepSE_jaundice (Hepatotoxicity [12]; Liver): 1; HepSE_Combined Scores (Hepatotoxicity [13]; Liver): 5; HepSE_elevated liver function tests (Hepatotoxicity [14]; Liver): 0
CC(=O)N[C@H]1[C@H](OCCCO)OC(C(=O)O)=C[C@@H]1O,0,0,0,0,0,0,0,0,0,0,0,0,0,0,–
CS(=O)(=O)OCCCCOS(C)(=O)=O [BUSULFAN],0,0,1,0,0,0,1,0,1,0,0,1,4,0,–
C[C@]12CC[C@@H]3c4ccc(O)cc4C[C@@H](CCCCCCCCC[S+]([O-])CCCC(F)(F)C(F)(F)F)[C@H]3[C@@H]1CC[C@@H]2O (stereo partly drawn) [FULVESTRANT],0,0,0,0,0,0,0,0,0,0,0,0,0,0,–
O=C1Cc2cc(CCN3CCN(c4nsc5ccccc45)CC3)c(Cl)cc2N1 [ZIPRASIDONE],0,0,0,0,0,0,1,1,1,0,0,1,4,0,–
N[C@@H](Cc1cc(I)c(Oc2cc(I)c(O)c(I)c2)c(I)c1)C(=O)O [LEVOTHYROXINE],0,0,0,0,0,0,0,0,0,0,0,0,0,0,–
O=C(O)CCNC(=O)c1ccc(/N=N/c2ccc(O)c(C(=O)O)c2)cc1 [BALSALAZIDE],0,0,0,1,1,0,0,0,0,0,1,1,5,1,–
